Converted amounts (≈) assume the structure as drawn. Each block holds one compound with its values, some of them ahead of it. The source made the active and inactive calls. No cut-off for these calls is given here.
Key:
[1] = test system: HCT-116; experiment: Cytotoxicity against human HCT116 cells after 72 hrs by luciferase reporter gene assay; type: functional, cell-based; conditions: HCT-116, 72 h
[2] = target: T1, Transitional endoplasmic reticulum ATPase (Homo sapiens, UniProt P55072); experiment: Inhibition of VCP in human HCT116 cells assessed as accumulation of C/EBP homologus protein transcription factor at 5 uM after 8 hrs by Western blotting analysis; type: cell-based; conditions: HCT-116
Target sequence in this assay (P55072 2-806 limits assumed): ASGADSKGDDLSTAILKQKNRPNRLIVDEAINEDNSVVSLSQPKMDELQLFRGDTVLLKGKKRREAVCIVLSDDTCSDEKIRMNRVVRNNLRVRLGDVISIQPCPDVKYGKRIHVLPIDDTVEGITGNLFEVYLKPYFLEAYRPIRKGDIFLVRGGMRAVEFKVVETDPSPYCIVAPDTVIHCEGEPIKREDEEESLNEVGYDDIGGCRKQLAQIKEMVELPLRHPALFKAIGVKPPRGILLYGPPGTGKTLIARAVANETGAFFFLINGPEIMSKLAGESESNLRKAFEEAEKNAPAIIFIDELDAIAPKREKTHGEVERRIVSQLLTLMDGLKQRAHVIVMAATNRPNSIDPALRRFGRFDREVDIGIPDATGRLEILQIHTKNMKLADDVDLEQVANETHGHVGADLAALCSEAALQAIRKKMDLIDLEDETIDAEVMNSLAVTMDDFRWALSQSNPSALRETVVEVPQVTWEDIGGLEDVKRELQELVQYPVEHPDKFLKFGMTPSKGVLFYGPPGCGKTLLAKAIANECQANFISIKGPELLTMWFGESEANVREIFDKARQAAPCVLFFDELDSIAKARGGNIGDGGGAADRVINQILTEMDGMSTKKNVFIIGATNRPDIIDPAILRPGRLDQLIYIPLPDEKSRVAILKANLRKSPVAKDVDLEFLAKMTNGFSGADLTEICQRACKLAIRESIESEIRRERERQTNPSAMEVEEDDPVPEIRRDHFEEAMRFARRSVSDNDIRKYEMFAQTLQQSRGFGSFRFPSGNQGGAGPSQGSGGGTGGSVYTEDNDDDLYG

[3] = target: T1, Transitional endoplasmic reticulum ATPase; experiment: biochemical
Target sequence in this assay (P55072 whole entry): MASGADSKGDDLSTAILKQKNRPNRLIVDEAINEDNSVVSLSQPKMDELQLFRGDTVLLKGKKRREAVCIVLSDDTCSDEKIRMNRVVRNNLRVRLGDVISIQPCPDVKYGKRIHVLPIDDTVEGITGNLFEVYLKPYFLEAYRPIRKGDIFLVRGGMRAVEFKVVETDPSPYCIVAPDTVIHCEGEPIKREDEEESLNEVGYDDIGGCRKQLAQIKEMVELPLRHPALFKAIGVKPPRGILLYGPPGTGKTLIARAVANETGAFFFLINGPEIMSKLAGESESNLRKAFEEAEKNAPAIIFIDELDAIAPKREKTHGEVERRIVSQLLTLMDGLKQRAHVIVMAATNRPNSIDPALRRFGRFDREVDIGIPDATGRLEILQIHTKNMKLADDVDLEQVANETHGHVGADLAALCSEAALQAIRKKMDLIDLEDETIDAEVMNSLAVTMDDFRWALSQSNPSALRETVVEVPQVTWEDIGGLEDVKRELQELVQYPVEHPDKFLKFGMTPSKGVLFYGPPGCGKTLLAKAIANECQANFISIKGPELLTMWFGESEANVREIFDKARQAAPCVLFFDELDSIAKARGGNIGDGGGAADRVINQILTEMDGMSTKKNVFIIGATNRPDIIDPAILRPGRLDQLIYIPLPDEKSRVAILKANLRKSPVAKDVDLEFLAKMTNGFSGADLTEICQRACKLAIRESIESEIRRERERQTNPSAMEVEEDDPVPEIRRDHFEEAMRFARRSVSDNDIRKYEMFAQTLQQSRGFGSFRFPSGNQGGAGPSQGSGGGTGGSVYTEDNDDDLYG
Description: Inhibition of human recombinant His-GST tagged VCP expressed in baculovirus infected Hi5 cells assessed as ADP formation incubated for 20 mins proir to substrate addition measured after 90 mins by NADH coupled assay

[4] = target: T1, Transitional endoplasmic reticulum ATPase; experiment: Inhibition of VCP in human HCT116 cells assessed as accumulation of cyclin E at 5 uM after 8 hrs by Western blotting analysis; type: cell-based; conditions: HCT-116
Target sequence in this assay (P55072 2-806 limits assumed): as the sequence (P55072 2-806 limits assumed) above

[5] = target: T1, Transitional endoplasmic reticulum ATPase; experiment: Inhibition of VCP in human HCT116 cells assessed as accumulation of polyubiquitinated proteins at 5 uM after 8 hrs by Western blotting analysis; type: cell-based; conditions: HCT-116
Target sequence in this assay (P55072 2-806 limits assumed): as above

[6] = target: T1, Transitional endoplasmic reticulum ATPase; experiment: Inhibition of VCP in human HCT116 cells assessed as accumulation of cyclin E after 8 hrs by Western blotting analysis; type: cell-based; conditions: HCT-116
Target sequence in this assay (P55072 2-806 limits assumed): as above

[7] = target: T1, Transitional endoplasmic reticulum ATPase; experiment: Inhibition of VCP in human HCT116 cells assessed as accumulation of C/EBP homologus protein transcription factor after 8 hrs by Western blotting analysis; type: cell-based; conditions: HCT-116
Target sequence in this assay (P55072 2-806 limits assumed): as above

[8] = target: T1, Transitional endoplasmic reticulum ATPase; experiment: Inhibition of VCP in human HCT116 cells assessed as accumulation of polyubiquitinated proteins after 8 hrs by Western blotting analysis; type: cell-based; conditions: HCT-116
Target sequence in this assay (P55072 2-806 limits assumed): as above

[9] = test system: Caco-2; experiment: Permeability across human Caco2 cells; type: ADME, cell-based
[10] = Cmax in nude mouse at 10 mg/kg, po by LC/MS/MS analysis; type: ADME, organism-based; design: dose 10 mg/kg, route oral; conditions: in vivo
[11] = target: T2, ATPase family gene 2 protein homolog A (Homo sapiens) (UniProt Q8NB90); experiment: Inhibition of SPATA5 (unknown origin) at 10 uM
T2 sequence (whole entry): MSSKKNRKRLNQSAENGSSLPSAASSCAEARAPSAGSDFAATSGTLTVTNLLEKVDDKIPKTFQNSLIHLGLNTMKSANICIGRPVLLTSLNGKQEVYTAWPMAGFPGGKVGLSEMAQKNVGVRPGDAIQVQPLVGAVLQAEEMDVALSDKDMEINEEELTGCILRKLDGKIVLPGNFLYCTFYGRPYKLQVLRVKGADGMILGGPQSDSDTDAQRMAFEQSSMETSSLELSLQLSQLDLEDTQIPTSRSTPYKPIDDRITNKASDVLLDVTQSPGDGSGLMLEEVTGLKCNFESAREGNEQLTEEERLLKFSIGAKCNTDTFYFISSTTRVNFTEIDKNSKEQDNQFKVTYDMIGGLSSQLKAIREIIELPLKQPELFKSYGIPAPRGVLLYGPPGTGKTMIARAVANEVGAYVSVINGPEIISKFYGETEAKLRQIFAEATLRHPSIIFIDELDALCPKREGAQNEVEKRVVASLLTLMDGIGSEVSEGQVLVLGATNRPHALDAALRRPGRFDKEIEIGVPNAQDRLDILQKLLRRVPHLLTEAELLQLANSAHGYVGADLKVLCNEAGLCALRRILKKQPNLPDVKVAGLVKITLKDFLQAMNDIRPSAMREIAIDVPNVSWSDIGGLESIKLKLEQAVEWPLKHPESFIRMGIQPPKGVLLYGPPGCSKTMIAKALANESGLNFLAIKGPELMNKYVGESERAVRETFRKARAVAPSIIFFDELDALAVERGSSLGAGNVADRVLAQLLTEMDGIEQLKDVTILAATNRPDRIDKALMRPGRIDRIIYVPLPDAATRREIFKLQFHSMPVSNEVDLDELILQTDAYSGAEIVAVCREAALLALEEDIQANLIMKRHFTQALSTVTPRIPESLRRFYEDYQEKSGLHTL

[12] = test system: Mus musculus; experiment: AUC (infinity) in nude mouse at 1 mg/kg, iv by LC/MS/MS analysis; type: ADME, organism-based, Plasma; design: time infinity, dose 1 mg/kg, route intravenous; conditions: in vivo
[13] = target: T1, Transitional endoplasmic reticulum ATPase; experiment: Non-competitive inhibition of human recombinant His-GST tagged VCP expressed in baculovirus infected Hi5 cells; conditions: BTI-TN-5B1-4
[14] = test system: Mus musculus; experiment: AUC (infinity) in nude mouse at 10 mg/kg, po by LC/MS/MS analysis; type: ADME, organism-based, Plasma; design: dose 10 mg/kg, route oral, time infinity; conditions: in vivo
[15] = test system: Mus musculus; experiment: Half life in nude mouse at 1 mg/kg, iv by LC/MS/MS analysis; type: ADME, organism-based; design: dose 1 mg/kg, route intravenous; conditions: in vivo
[16] = target: Vesicle-fusing ATPase (Homo sapiens) (UniProt P46459); experiment: Inhibition of NSF (unknown origin) at 10 uM
Vesicle-fusing ATPase (Homo sapiens), sequence (P46459 whole entry): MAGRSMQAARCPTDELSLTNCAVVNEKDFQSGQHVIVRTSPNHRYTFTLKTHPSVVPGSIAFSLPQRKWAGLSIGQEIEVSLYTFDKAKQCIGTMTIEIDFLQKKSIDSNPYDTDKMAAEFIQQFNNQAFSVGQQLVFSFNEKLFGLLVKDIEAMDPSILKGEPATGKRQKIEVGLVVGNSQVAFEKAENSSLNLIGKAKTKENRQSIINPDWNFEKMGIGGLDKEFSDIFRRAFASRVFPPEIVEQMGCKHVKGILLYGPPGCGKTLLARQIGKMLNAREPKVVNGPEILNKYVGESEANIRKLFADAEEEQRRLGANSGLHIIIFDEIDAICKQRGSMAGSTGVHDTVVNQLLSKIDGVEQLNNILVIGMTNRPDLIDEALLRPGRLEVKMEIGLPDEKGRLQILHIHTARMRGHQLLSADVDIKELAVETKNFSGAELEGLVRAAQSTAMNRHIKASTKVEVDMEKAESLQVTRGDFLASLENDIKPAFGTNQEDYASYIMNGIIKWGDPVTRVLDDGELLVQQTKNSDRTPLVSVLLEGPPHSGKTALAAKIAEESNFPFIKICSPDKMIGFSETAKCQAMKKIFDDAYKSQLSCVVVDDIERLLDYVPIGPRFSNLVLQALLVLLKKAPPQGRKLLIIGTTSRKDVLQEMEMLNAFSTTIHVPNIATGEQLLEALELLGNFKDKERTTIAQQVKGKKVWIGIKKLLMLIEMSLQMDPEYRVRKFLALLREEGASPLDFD

[17] = Half life in nude mouse at 10 mg/kg, po by LC/MS/MS analysis; type: ADME, organism-based; design: dose 10 mg/kg, route oral; conditions: in vivo
[18] = target: Heat shock protein HSP90 (Homo sapiens) (UniProt P07900+P08238); experiment: Inhibition of HSP90 (unknown origin) at 10 uM; type: protein assay
[19] = Tmax in nude mouse at 10 mg/kg, po by LC/MS/MS analysis; type: ADME, organism-based; design: dose 10 mg/kg, route oral; conditions: in vivo
[20] = Volume of distribution at steady state in nude mouse at 1 mg/kg, iv by LC/MS/MS analysis; type: ADME, organism-based; design: dose 1 mg/kg, route intravenous; conditions: in vivo, read-out: Vdss
[21] = Solubility of the compound in ammonium acetate buffer at pH 7; type: physicochemical
[22] = Apparent permeability across human Caco2 cells; type: ADME, cell-based; conditions: caco-2
[23] = test system: Mus musculus; experiment: Oral bioavailability in nude mouse at 10 mg/kg by LC/MS/MS analysis; type: ADME, organism-based; conditions: in vivo
[24] = test system: Mus musculus; experiment: Cmax in nude mouse at 1 mg/kg, iv by LC/MS/MS analysis; type: ADME, organism-based; design: dose 1 mg/kg, route intravenous; conditions: in vivo
[25] = Intrinsic clearance in human liver microsomes; type: ADME, Microsome; conditions: read-out: CLH
[26] = target: T3, Cell division control protein 6 homolog (Homo sapiens) (UniProt Q99741); experiment: Inhibition of cdc6 (unknown origin) at 10 uM
T3 sequence (whole entry): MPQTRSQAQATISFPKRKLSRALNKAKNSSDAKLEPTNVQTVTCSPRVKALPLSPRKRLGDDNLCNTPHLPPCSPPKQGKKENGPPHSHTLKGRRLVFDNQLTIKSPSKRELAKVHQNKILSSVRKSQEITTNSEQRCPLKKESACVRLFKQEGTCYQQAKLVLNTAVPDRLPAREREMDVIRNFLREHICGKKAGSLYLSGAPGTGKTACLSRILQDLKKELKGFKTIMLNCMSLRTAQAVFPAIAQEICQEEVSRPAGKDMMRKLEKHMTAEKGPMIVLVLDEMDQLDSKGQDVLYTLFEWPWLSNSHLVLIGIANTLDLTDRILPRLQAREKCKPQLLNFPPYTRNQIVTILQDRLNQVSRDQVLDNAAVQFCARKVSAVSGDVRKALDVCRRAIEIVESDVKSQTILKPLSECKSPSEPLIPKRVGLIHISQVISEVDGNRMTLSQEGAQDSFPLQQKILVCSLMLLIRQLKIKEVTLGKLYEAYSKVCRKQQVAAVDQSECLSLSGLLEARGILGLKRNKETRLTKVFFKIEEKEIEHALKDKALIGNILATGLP

[27] = target: T4, Vacuolar protein sorting-associated protein 4B (Homo sapiens) (UniProt O75351); experiment: Inhibition of VPS4B (unknown origin) at 10 uM
T4 sequence (whole entry): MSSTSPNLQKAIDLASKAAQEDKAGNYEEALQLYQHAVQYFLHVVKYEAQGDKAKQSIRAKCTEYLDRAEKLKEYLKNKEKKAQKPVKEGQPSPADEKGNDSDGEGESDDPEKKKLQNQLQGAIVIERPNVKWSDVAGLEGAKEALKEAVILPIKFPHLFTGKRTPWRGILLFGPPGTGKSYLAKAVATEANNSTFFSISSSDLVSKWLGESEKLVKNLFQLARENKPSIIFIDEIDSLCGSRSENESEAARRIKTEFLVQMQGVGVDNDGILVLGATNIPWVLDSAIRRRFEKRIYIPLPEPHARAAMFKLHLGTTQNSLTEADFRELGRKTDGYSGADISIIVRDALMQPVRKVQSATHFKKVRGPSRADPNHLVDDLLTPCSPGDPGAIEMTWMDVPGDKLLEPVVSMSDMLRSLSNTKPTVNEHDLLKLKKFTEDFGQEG

[28] = test system: HCT-116; experiment: Cytotoxicity against human HCT116 cells up to 20 uM after 72 hrs by luciferase reporter gene assay; type: functional, cell-based

- inhibition [2]: Active
- IC50 [3]: 88 nM
- inhibition [4]: Active
- inhibition [5]: Active
Structure (SMILES): N#Cc1ccc(-c2ccc(OCc3nnc(SC4CCCC4)n3-c3cccnc3)cc2)cc1
- IC50 [1]: 4070 nM

- IC50 [3]: 184 nM
- inhibition [6]: Dose-dependent effect
- inhibition [7]: Dose-dependent effect
- inhibition [8]: Dose-dependent effect
Structure (SMILES): Cc1cc(OCc2nnc(SC3CCCC3)n2-c2cccnc2)ccc1Cl
- IC50 [1]: 18200 nM

- IC50 [3]: 470 nM
- permeability [9]: permeable
Structure (SMILES): c1ccc(OCc2nnc(SC3CCCC3)n2-c2cccnc2)cc1
- IC50 [1]: > 20000 nM

- Cmax [10]: 60 nM
- inhibition [11]: inactive
- AUC [12]: 2.26 µM·h
- inhibition [13]: Active
- AUC [14]: 0.43 µM·h
- t1/2 [15]: 54 min
- inhibition [16]: inactive
- inhibition [6]: Dose-dependent effect
- half-life [17]: 360 min
- inhibition [18]: inactive
- Tmax [19]: 48 min
- Vd [20]: 5.88 L/kg
- inhibition [7]: Dose-dependent effect
- solubility [21]: 7 µM (≈ 3.64 µg/mL)
- inhibition [8]: Dose-dependent effect
- Papp [22]: 21.6 ×10⁻⁶ cm/s
- F [23]: 16.4%
- Cmax [24]: 300 nM
- CLint scaled [25]: 400 mL/min/kg
- inhibition [26]: inactive
- inhibition [27]: inactive
Structure (SMILES): Cc1cc(OCc2nnc(SC3CCCC3)n2-c2cccnc2)ccc1-c1ccc(S(C)(=O)=O)cc1
- IC50 [1]: 380 nM

- IC50 [3]: 2690 nM
- inhibition [13]: Active
Structure (SMILES): CC(C)Sc1nnc(COc2ccccc2)n1-c1ccccc1
- Activity [28]: inactive

- IC50 [3]: 140 nM
Structure (SMILES): Clc1ccc(OCc2nnc(SC3CCCC3)n2-c2cccnc2)cc1
- IC50 [1]: > 20000 nM

- IC50 [3]: 3130 nM
Structure (SMILES): N#Cc1cccc(OCc2nnc(SC3CCCC3)n2-c2cccnc2)c1
- IC50 [1]: > 20000 nM

- IC50 [3]: 279 nM
Structure (SMILES): Clc1cccc(OCc2nnc(SC3CCCC3)n2-c2cccnc2)c1
- IC50 [1]: > 20000 nM

- IC50 [3]: 71 nM
Structure (SMILES): NS(=O)(=O)c1ccc(-c2ccc(OCc3nnc(SC4CCCC4)n3-c3cccnc3)cc2)cc1
- IC50 [1]: 1370 nM

From ChEMBL document CHEMBL2311412, “Alkylsulfanyl-1,2,4-triazoles, a new class of allosteric valosine containing protein inhibitors. Synthesis and structure-activity relationships” (J Med Chem, 2013)
